Patent US9663526B2, “Aminopyrimidinyl compounds” (Pfizer Inc., priority 2014, dated 2017)
Where two headings read alike, the source gives them in different places.

What was measured:
[1] = tested on: interferon alpha signalling (TYK2 and JAK1), STAT3 phosphorylation; assay: Human whole blood INFα induced STAT3 phosphorylation assay; type: cell-based; details: compound 60 minutes at 37° C., IFNα 5000 U/ml for 15 minutes, pSTAT3 in lymphocyte population by flow cytometry, read-out: HWB IFN alpha IC50;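 also: flow cytometry with anti-pSTAT3 staining, signal as percent-positive × mean fluorescence, baseline from unstimulated wells, 11-point dilution series, IC50 as inhibition of pSTAT3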
[2] = molecular target: recombinant human kinase domain of JAK1 (Homo sapiens (Human), UniProt P23458); assay: JAK Caliper enzyme assay at 1 mM ATP (JAK1); type: biochemical;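 also: microfluidic mobility-shift readout of synthetic fluorescent peptide phosphorylation, percent product converted from peak height, inhibition relative to DMSO-only wells as uninhibited baseline, room temperature incubation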
[3] = molecular target: recombinant human kinase domain of JAK2 (Homo sapiens (Human), UniProt O60674); assay: JAK Caliper enzyme assay at 1 mM ATP (JAK2); type: biochemical;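 also: microfluidic mobility-shift read-out of fluorescent synthetic peptide phosphorylation, percent product converted from peak heights, room temperature, DMSO-only wells as uninhibited baseline, inhibition curve fit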
[4] = molecular target: recombinant human kinase domain of JAK3 (Homo sapiens (Human), UniProt P52333); assay: JAK Caliper enzyme assay at 1 mM ATP (JAK3); type: biochemical;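 also: microfluidic mobility-shift readout of synthetic peptide phosphorylation, percent product converted from peak heights, normalized to DMSO-only wells as uninhibited baseline, room temperature incubation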
[5] = molecular target: recombinant human kinase domain of TYK2 (Homo sapiens (Human), UniProt P29597); assay: JAK Caliper enzyme assay at 1 mM ATP (TYK2); type: biochemical; details: 1 mM ATP; read-out: IC50 (nM) TYK2;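 also: microfluidic mobility-shift readout of synthetic peptide phosphorylation by TYK2, tuned to 20–30% conversion at room temperature, reaction stopped with EDTA, DMSO-only wells as uninhibited baseline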
[6] = 1 mM ATP, read-out: IC50 (nM) JAK1
[7] = 1 mM ATP, read-out: IC50 (nM) JAK3

Chain of recombinant human kinase domain of JAK3 (P52333 822-1111): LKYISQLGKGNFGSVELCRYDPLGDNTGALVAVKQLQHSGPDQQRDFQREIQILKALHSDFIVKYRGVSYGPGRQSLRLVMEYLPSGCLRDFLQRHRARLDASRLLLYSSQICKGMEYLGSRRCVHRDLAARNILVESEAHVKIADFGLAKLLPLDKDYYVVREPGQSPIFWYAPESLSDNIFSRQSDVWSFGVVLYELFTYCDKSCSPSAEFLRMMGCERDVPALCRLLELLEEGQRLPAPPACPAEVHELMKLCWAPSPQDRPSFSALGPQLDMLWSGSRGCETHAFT
Chain of recombinant human kinase domain of JAK1 (P23458 875-1153): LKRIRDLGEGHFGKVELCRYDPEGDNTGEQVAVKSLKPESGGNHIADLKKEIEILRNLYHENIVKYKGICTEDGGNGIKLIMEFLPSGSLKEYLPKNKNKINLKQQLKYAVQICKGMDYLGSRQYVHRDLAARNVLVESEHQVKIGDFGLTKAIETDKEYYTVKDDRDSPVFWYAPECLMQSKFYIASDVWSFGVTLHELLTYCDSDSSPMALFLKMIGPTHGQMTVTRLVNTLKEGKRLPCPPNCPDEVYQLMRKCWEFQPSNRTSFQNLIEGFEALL
Chain of recombinant human kinase domain of TYK2 (P29597 897-1176): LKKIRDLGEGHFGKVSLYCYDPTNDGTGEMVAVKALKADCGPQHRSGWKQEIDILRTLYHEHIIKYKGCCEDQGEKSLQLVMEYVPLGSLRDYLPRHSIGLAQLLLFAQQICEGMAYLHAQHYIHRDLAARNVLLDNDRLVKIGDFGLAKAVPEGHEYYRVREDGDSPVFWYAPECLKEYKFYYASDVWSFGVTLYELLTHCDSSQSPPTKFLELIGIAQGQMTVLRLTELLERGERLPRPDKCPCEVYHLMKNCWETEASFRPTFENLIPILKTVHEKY
Chain of recombinant human kinase domain of JAK2 (O60674 849-1124): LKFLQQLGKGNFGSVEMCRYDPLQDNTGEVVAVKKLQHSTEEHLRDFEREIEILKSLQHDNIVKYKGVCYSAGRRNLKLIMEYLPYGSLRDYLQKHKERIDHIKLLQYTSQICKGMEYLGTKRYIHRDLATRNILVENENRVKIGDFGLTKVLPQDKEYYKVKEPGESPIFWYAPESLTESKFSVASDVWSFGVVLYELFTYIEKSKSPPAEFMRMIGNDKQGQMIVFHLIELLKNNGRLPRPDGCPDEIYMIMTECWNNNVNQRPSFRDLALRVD

| Compound | IC50 [1] | IC50 [2, 6] | IC50 [3] | IC50 [4] | IC50 [5] | IC50 [4, 7] | IC50 [2] |
| --- | --- | --- | --- | --- | --- | --- | --- |
| O=C([C@@H]1CC1(F)F)N1[C@@H]2CC[C@H]1CN(c1ccnc(Nc3cnc(OCCO)c(Cl)c3)n1)C2 [Example 23, [(1R,5S)-3-(2-{[5-chloro-6-(2-hydroxyethoxy)pyridin-3-yl]amino}pyrimidin-4-yl)-3,8-diazabicyclo[3.2.1]oct-8-yl][(1S)-2,2-difluorocyclopropyl]methanone] | 428 nM |  |  |  |  |  |  |
| O=C([C@@H]1CC1(F)F)N1[C@@H]2CC[C@H]1CN(c1ccnc(Nc3cnc(N4CC[C@@H](O)C4)c(F)c3)n1)C2 [Example 21, [(1S)-2,2-difluorocyclopropyl]{(1R,5S)-3-[2-({5-fluoro-6-[(3R)-3-hydroxypyrrolidin-1-yl]pyridin-3-yl}amino)pyrimidin-4-yl]-3,8-diazabicyclo[3.2.1]oct-8-yl}methanone] | 731 nM |  |  |  |  |  |  |
| Cn1cc(Nc2nccc(N3C[C@H]4CC[C@@H](C3)N4C(=O)[C@@H]3CC3(F)F)n2)cn1 [Example 7, [(1S)-2,2-difluorocyclopropyl][(1R,5S)-3-{2-[(1-methyl-1H-pyrazol-4-yl)amino]pyrimidin-4-yl}-3,8-diazabicyclo[3.2.1]oct-8-yl]methanone] | 30 nM |  |  |  |  |  |  |
| Cn1cc(Nc2nccc(N3C[C@H]4CC[C@@H](C3)N4C[C@H]3C[C@@H]3C#N)n2)cn1 [Example 69, (1S,2S)-2-{[(1R,5S)-3-{2-[(1-methyl-1H-pyrazol-4-yl)amino]pyrimidin-4-yl}-3,8-diazabicyclo[3.2.1]oct-8-yl]methyl}cyclopropanecarbonitrile] |  | 1100 nM | 5700 nM | > 10000 nM | 811 nM |  |  |
| O=C(N[C@@]12C[C@@H]1CN(c1nc(Nc3cnn(CCO)c3)ncc1Cl)C2)C1CC1 [Example 107, N-[(1S,5R)-3-(5-chloro-2-{[1-(2-hydroxyethyl)-1H-pyrazol-4-yl]amino}pyrimidin-4-yl)-3-azabicyclo[3.1.0]hex-1-yl]cyclopropanecarboxamide] |  | 19 nM | 177 nM |  | 21 nM | 1880 nM |  |
| Cn1cc(Nc2nccc(N3C[C@H]4CC[C@@H](C3)N4C[C@H]3C[C@@H]3C#N)n2)cn1 [Example 70, (1S,2S)-2-{[(1R,5S)-3-{2-[(1-methyl-1H-pyrazol-4-yl)amino]pyrimidin-4-yl}-3,8-diazabicyclo[3.2.1 l]oct-8-yl]methyl}cyclopropanecarbonitrile] |  | 259 nM | 1540 nM |  | 261 nM | > 10000 nM |  |
| CCNC(=O)c1ccc(Nc2ncc(F)c(N3CC4CC(C3)N4C(=O)C(C)(F)F)n2)cc1C [Example 111, 4-({4-[6-(2,2-difluoropropanoyl)-3,6-diazabicyclo[3.1.1]hept-3-yl]-5-fluoropyrimidin-2-yl}amino)-N-ethyl-2-methylbenzamide] |  | 1690 nM | 2210 nM |  | 56 nM | 4870 nM |  |
| CC(CC#N)N1[C@@H]2CC[C@H]1CN(c1ccnc(Nc3cn[nH]c3)n1)C2 (stereo partly drawn) [Example 82, 3-{(1R,5S)-3-[2-(1H-pyrazol-4-ylamino)pyrimidin-4-yl]-3,8-diazabicyclo[3.2.1]oct-8-yl}butanenitrile] |  | 135 nM | 473 nM |  | 79 nM | > 10000 nM |  |
| CC(C)NC(=O)N1[C@@H]2CC[C@H]1CN(c1ccnc(Nc3cnn(C)c3)n1)C2 [Example 88, (1R,5S)-3-{2-[(1-methyl-1H-pyrazol-4-yl)amino]pyrimidin-4-yl}-N-(propan-2-yl)-3,8-diazabicyclo[3.2.1]octane-8-carboxamide] |  | 165 nM | 894 nM |  | 110 nM | > 10000 nM |  |
| CCCNC(=O)c1cc(Nc2ncc(F)c(N3C[C@H]4CC[C@@H](C3)N4C(=O)C3CC3)n2)n[nH]1 [Example 2, 3-({4-[(1R,5S)-8-(cyclopropylcarbonyl)-3,8-diazabicyclo[3.2.1]oct-3-yl]-5-fluoropyrimidin-2-yl}amino)-N-propyl-1H-pyrazole-5-carboxamide] |  | 1550 nM | 4720 nM |  | 432 nM | > 10000 nM |  |
| O=C(c1ccno1)N1[C@@H]2CC[C@H]1CN(c1ccnc(Nc3cn[nH]c3)n1)C2 [Example 17, 1,2-oxazol-5-yl{(1R,5S)-3-[2-(1H-pyrazol-4-ylamino)pyrimidin-4-yl]-3,8-diazabicyclo[3.2.1]oct-8-yl}methanone] |  | 684 nM | 3380 nM |  | 242 nM | > 10000 nM |  |
| Cn1cc(Nc2nccc(N3C[C@H]4CC[C@@H](C3)N4C(=O)Nc3ccc(C(F)(F)F)cn3)n2)cn1 [Example 48, (1R,5S)-3-{2-[(1-methyl-1H-pyrazol-4-yl)amino]pyrimidin-4-yl}-N-[5-(trifluoromethyl)pyridin-2-yl]-3,8-diazabicyclo[3.2.1]octane-8-carboxamide] |  | 300 nM | 2510 nM |  | 964 nM | > 10000 nM |  |
| Cn1cc(Nc2nccc(N3C[C@H]4CC[C@@H](C3)N4c3cc(C#N)ccn3)n2)cn1 [Example 92, 2-[(1R,5S)-3-{2-[(1-methyl-1H-pyrazol-4-yl)amino]pyrimidin-4-yl}-3,8-diazabicyclo[3.2.1]oct-8-yl]pyridine-4-carbonitrile] |  | 52 nM | 264 nM |  | 62 nM | 6560 nM |  |
| CNC(=O)c1cc(Nc2nccc(N3C[C@H]4CC[C@@H](C3)N4C(=O)[C@@H]3CC3(F)F)n2)cc(C)n1 [Example 40, 4-({4-[(1R,5S)-8-{[(1S)-2,2-difluorocyclopropyl]carbonyl}-3,8-diazabicyclo[3.2.1]oct-3-yl]pyrimidin-2-yl}amino)-N,6-dimethylpyridine-2-carboxamide] |  | 369 nM | 189 nM |  | 70 nM | > 10000 nM |  |
| Cn1cc(Nc2nccc(N3C[C@H]4CC[C@@H](C3)N4c3ncc(C#N)o3)n2)cn1 [Example 78, 2-[(1R,5S)-3-{2-[(1-methyl-1H-pyrazol-4-yl)amino]pyrimidin-4-yl}-3,8-diazabicyclo[3.2.1]oct-8-yl]-1,3-oxazole-5-carbonitrile] |  | 68 nM | 461 nM |  | 63 nM | > 10000 nM |  |
| C[C@H](CO)c1ccc(Nc2ncc(F)c(N3C[C@H]4[C@@H](C)[C@@]4(NC(=O)C4CC4)C3)n2)cn1 (single isomer, unassigned) [Example 104] |  | 1150 nM | 3130 nM |  | 86 nM | > 10000 nM |  |
| CNC(=O)c1ncc(Nc2nccc(N3C[C@H]4CC[C@@H](C3)N4[C@H]3C[C@H](C#N)C3)n2)cc1C (single isomer, unassigned) [Example 62] |  |  | 1390 nM | > 10000 nM | 224 nM |  | 1020 nM |
| Cc1cc(Nc2nccc(N3C[C@H]4CC[C@@H](C3)N4C(=O)C3CC3)n2)cnc1C(N)=O [Example 15, 5-({4-[(1R,5S)-8-(cyclopropylcarbonyl)-3,8-diazabicyclo[3.2.1]oct-3-yl]pyrimidin-2-yl}amino)-3-methylpyridine-2-carboxamide] | 534 nM |  |  |  |  |  |  |
| Cn1cc(Nc2nccc(N3C[C@H]4CC[C@@H](C3)N4C[C@H]3CC3(F)F)n2)cn1 [Example 63, 4-[(1R,5S)-8-{[(1R)-2,2-difluorocyclopropyl]methyl}-3,8-diazabicyclo[3.2.1]oct-3-yl]-N-(1-methyl-1H-pyrazol-4-yl)pyrimidin-2-amine] |  | 303 nM | 856 nM |  | 125 nM | > 10000 nM |  |
| CNC(=O)c1ncc(Nc2ncc(F)c(N3C[C@H]4[C@@H](C)[C@@]4(NC(=O)C4CC4)C3)n2)cc1C [Example 100, 5-[(4-{(1S,5R,6R)-1-[(cyclopropylcarbonyl)amino]-6-methyl-3-azabicyclo[3.1.0]hex-3-yl}-5-fluoropyrimidin-2-yl)amino]-N,3-dimethylpyridine-2-carboxamide] |  | 965 nM | 4250 nM |  | 97 nM | > 10000 nM |  |
| CC(CC#N)N1[C@@H]2CC[C@H]1CN(c1ccnc(Nc3cnn(C)c3)n1)C2 (stereo partly shown) [Example 81] |  | 405 nM | 603 nM |  | 199 nM | > 10000 nM |  |
| Cn1cc(Nc2nccc(N3C[C@H]4CC[C@@H](C3)N4C(=O)[C@@H]3C[C@@H]3C#N)n2)cn1 [Example 37, (1S,2R)-2-{[(1R,5S)-3-{2-[(1-methyl-1H-pyrazol-4-yl)amino]pyrimidin-4-yl}-3,8-diazabicyclo[3.2.1]oct-8-yl]carbonyl}cyclopropanecarbonitrile] |  | 467 nM | 1400 nM |  | 250 nM | 8310 nM |  |
| C[C@@H]1[C@@H]2CN(c3nc(Nc4cnn(C5COC5)c4)ncc3F)C[C@]12NC(=O)[C@@H]1CC1(F)F [Example 99, (1S)-2,2-difluoro-N-[(1S,5R,6R)-3-(5-fluoro-2-{[1-(oxetan-3-yl)-1H-pyrazol-4-yl]amino}pyrimidin-4-yl)-6-methyl-3-azabicyclo[3.1.0]hex-1-yl]cyclopropanecarboxamide] |  | 65 nM | 391 nM |  | 26 nM | 4940 nM |  |
| Cn1cc(Nc2nccc(N3C[C@H]4CC[C@@H](C3)N4S(C)(=O)=O)n2)cn1 [Example 77, N-(1-methyl-1H-pyrazol-4-yl)-4-[(1R,5S)-8-(methylsulfonyl)-3,8-diazabicyclo[3.2.1]oct-3-yl]pyrimidin-2-amine] |  | 380 nM | 653 nM |  | 256 nM | > 10000 nM |  |
| Cn1cc(Nc2nccc(N3C[C@H]4CC[C@@H](C3)N4C(=O)C3CC(F)(F)C3)n2)cn1 [Example 39, (3,3-difluorocyclobutyl)[(1R,5S)-3-{2-[(1-methyl-1H-pyrazol-4-yl)amino]pyrimidin-4-yl}-3,8-diazabicyclo[3.2.1]oct-8-yl]methanone] |  | 305 nM | 1170 nM |  | 136 nM | > 10000 nM |  |
